Results published in patent US20230146455A1, “TREATMENT OF INFLAMMATORY DISEASES WITH PEPTIDES AND PHARMACEUTICAL COMPOSITIONS” (Yuyu Pharma, Inc., priority 2020, published 2023).
Several values for one entry are separate records, joined by “and”; a condition that tells them apart may be missing. Identical values can stand only once. Where a SMILES comes first, the peptide text is derived from it. [ ]: non-standard residue; d: D form. Hyp = O=C(O)[C@@H]1C[C@@H](O)CN1

Key:
[1] = PBMC cell counts (total, live, viability; trypan blue, Countess) with and without LPS and test articles (Example 9); type: cell-based, human; conditions: human; for viability at 24 h, 0.001 µM: PBMC + LPS(5 ug/ml) + compound 0.001 uM; for viability at 24 h, 0.1 µM: PBMC + LPS(5 ug/ml) + compound 0.1 uM; for viability at 24 h, 1 µM: PBMC + LPS(5 ug/ml) + compound 1 uM; for viability at 24 h, 10 µM: PBMC + LPS(5 ug/ml) + compound 10 uM; for viability at 24 h, 100 µM: PBMC + LPS(5 ug/ml) + compound 100 uM
Protocol: (§1) Treatment Human PBMCs were pretreated with YY-101, YDE-011 and YDE-043 or reference compound; Xiidra® at various concentration (ranging from 1 nM to 100 uM) for 2 h before stimulation. An equal volume of 0.5% DMSO was used as a vehicle control. Then, the cells were treated with LPS at 5 ug/ml. The supernatants from treated cells were harvested at 24 h and placed in a 96 well for Luminex cytokine & chemokine profiling using a Luminex 200 multiplex assay (Luminex; R&D system, USA).
(§2) The main study arm with triplicate wells per group in a 24-well plate: • 1. Blank • 2. PBMC: 0.5% DMSO • 3. PBMC+LPS (5 ug/ml) • 4. PBMC+YY-101 100 uM • 5. PBMC+YY-101 10 uM • 6. PBMC+YY-101 1 uM • 7. PBMC+YY-101 0.1 uM • 8. PBMC+YY-101 0.01 uM • 9. PBMC+LPS (5 ug/ml)+Xiidra®100 uM • 10. PBMC+LPS (5 ug/ml)+Xiidra® 10 uM • 11. PBMC+LPS (5 ug/ml)+Xiidra® 1 uM • 12. PBMC+LPS (5 ug/ml)+Xiidra®0.1 uM • 13. PBMC+LPS (5 ug/ml)+Xiidra®0.01 uM • 14. PBMC+LPS (5 ug/ml)+Xiidra®0.001 uM • 15. PBMC+LPS (5 ug/ml)+YY-101 100 uM • 16. PBMC+LPS (5 ug/ml)+YY-101 10 uM • 17. PBMC+LPS (5 ug/ml)+YY-101 1 uM • 18. PBMC+LPS (5 ug/ml)+YY-101 0.1 uM • 19. PBMC+LPS (5 ug/ml)+YY-101 0.01 uM • 20. PBMC+LPS (5 ug/ml)+YY-101 0.001 uM • 21. PBMC+LPS (5 ug/ml)+YDE-011 100 uM • 22. PBMC+LPS (5 ug/ml)+YDE-011 10 uM • 23. PBMC+LPS (5 ug/ml)+YDE-011 1 uM • 24. PBMC+LPS (5 ug/ml)+YDE-011 0.1 uM • 25. PBMC+LPS (5 ug/ml)+YDE-011 0.01 uM • 26. PBMC+LPS (5 ug/ml)+YDE-011 0.001 uM • 27. PBMC+LPS (5 ug/ml)+YDE-043 100 uM • 28. PBMC+LPS (5 ug/ml)+YDE-043 10 uM • 29. PBMC+LPS (5 ug/ml)+YDE-043 1 uM • 30. PBMC+LPS (5 ug/ml)+YDE-043 0.1 uM • 31. PBMC+LPS (5 ug/ml)+YDE-043 0.01 uM • 32. PBMC+LPS (5 ug/ml)+YDE-043 0.001 uM
The number of PBMCs was measured after 24 hr of treatment. The culture both and trypan blue were diluted 1:1 and 10 ul was added to Countess cell counting chamber (Thermo fisher, USA). The number of PBMCs was measured using a Countess automated cell counter (Thermo fisher, USA).

[2] = tested on: IL-2; assay: Example 9 Luminex, LPS hPBMCs: IL-2; type: cell-based, human
Protocol: as §1, §2
Multiplex assay was used to measure 30 cytokines and chemokines. The 1:2, 1:10 and 1:200 diluted cell supernatant and serial dilution of the standard were dispensed into a 96 well plate at 50 ul/well. Then, the pre-mixed cocktail of antibody-coated magnetic beads was dispensed at 50 ul/well and incubated at room temperature for 2 h in a horizontal orbital microplate shaker at 800±500 rpm. The beads were washed using a magnetic device to prevent loss. The biotin-antibody was dispensed in 50 ul of each well and incubated at room temperature for 1 h in a shaker at 800±500 rpm. After washing, streptavidin-PE was added at 50 ul/well and incubated at room temperature for 30 min in a shaker under the same conditions. Finally, after washing, wash buffer (100 ul/well) was added to the plate and incubated in a shaker for 2 min. The Luminex™ 200 setting were set according to the manufacturer's protocol. The data was calculated with a standard five-parameter logistic nonlinear regression analysis of the data (xPonent software 4.2, USA). The levels of cytokine/chemokine are normalized to the live cell counts (1×10^5 cells/mL) and presented as concentrations per mL (pg/mL or ng/mL).

[3] = PBMCs, PBMC + LPS(5 ug/ml) + compound 0.01 uM, 24 hr
[4] = PBMC + LPS(5 ug/ml) + test article 0.001 uM, Mean
[5] = PBMC + LPS(5 ug/ml) + test article 0.001 uM, single replicates
[6] = PBMC + LPS(5 ug/ml) + test article 0.01 uM, Mean
[7] = PBMC + LPS(5 ug/ml) + test article 0.01 uM, single replicates
[8] = PBMC + LPS(5 ug/ml) + test article 0.1 uM, Mean
[9] = PBMC + LPS(5 ug/ml) + test article 0.1 uM, single replicates
[10] = PBMC + LPS(5 ug/ml) + test article 1 uM, Mean
[11] = PBMC + LPS(5 ug/ml) + test article 1 uM, single replicates
[12] = PBMC + LPS(5 ug/ml) + test article 10 uM, Mean
[13] = PBMC + LPS(5 ug/ml) + test article 10 uM, single replicates
[14] = PBMC + LPS(5 ug/ml) + test article 100 uM, Mean
[15] = PBMC + LPS(5 ug/ml) + test article 100 uM, single replicates

Row | SMILES | viability at 24 h, 0.001 µM ([1]; PBMCs, 24 hr) | viability at 24 h, 0.01 µM [1, 3] | viability at 24 h, 0.1 µM ([1]; PBMCs, 24 hr) | viability at 24 h, 1 µM ([1]; PBMCs, 24 hr) | viability at 24 h, 10 µM ([1]; PBMCs, 24 hr) | viability at 24 h, 100 µM ([1]; PBMCs, 24 hr) | IL-2 conc/live cell [2, 4] | MFI, Bead name: IL-2 [2, 4] | IL-2 conc/live cell [2, 5] | MFI, Bead name: IL-2 [2, 5] | IL-2 conc/live cell [2, 6] | MFI, Bead name: IL-2 [2, 6] | IL-2 conc/live cell [2, 7] | MFI, Bead name: IL-2 [2, 7] | IL-2 conc/live cell [2, 8] | MFI, Bead name: IL-2 [2, 8] | IL-2 conc/live cell [2, 9] | MFI, Bead name: IL-2 [2, 9] | IL-2 conc/live cell [2, 10] | MFI, Bead name: IL-2 [2, 10] | other results
1 | CC(C)C[C@H](NC(=O)[C@H](CCC(N)=O)NC(=O)CNC(=O)[C@@H]1C[C@@H](O)CN1)C(=O)NCC(=O)O [YDE-043] (H-[Hyp]GQLG-OH; N-terminus and C-terminus assumed) | 79.3 ± 1.5% | 77.3 ± 6.9% | 82 ± 4% | 78 ± 5% | 83.3 ± 3.3% | 84.5 ± 4.5% | 0.0 pg/10^5 | 6.3 | 0.0 pg/10^5 | 3.0 and 8.0 (2×) | 0.0 pg/10^5 | 4.7 | 0.0 pg/10^5 | 6.0 and 4.0 (2×) | 0.0 pg/10^5 | 5.7 | 0.0 pg/10^5 | 6.0 and 3.0 and 8.0 | 0.0 pg/10^5 | 3.0 | IL-2 conc/live cell [2, 11]: 0.0 pg/10^5; MFI, Bead name: IL-2 [2, 11]: 3.0 and 2.0 and 4.0; IL-2 conc/live cell [2, 12]: 0.0 pg/10^5; MFI, Bead name: IL-2 [2, 12]: 3.3; IL-2 conc/live cell [2, 13]: 0.0 pg/10^5; MFI, Bead name: IL-2 [2, 13]: 3.0 and 2.0 and 5.0; IL-2 conc/live cell [2, 14]: 0.0 pg/10^5; MFI, Bead name: IL-2 [2, 14]: 2.0; IL-2 conc/live cell [2, 15]: 0.0 pg/10^5; MFI, Bead name: IL-2 [2, 15]: 2.0
2 | CC(C)C[C@H](NC(=O)CNC(=O)[C@H](CC(C)C)NC(=O)[C@H](CCC(N)=O)NC(=O)CNC(=O)[C@@H]1C[C@@H](O)CN1)C(=O)N[C@@H](C)C(=O)NCC(=O)N1CCC[C@H]1C(=O)N[C@@H](CCCCN)C(=O)O [YDE-011] (H-[Hyp]GQLGLAGPK-OH) | 85 ± 5.1% | 81 ± 1.2% | 82 ± 4% | 79.7 ± 5.8% | 88.3 ± 1.5% | 74.3 ± 4.1% | 0.0 pg/10^5 | 4.0 | 0.0 pg/10^5 | 4.0 | 0.0 pg/10^5 | 5.0 | 0.0 pg/10^5 | 5.0 | 0.0 pg/10^5 | 6.7 | 0.0 pg/10^5 | 7.0 and 8.0 and 5.0 | 0.0 pg/10^5 | 5.3 | viability at 24 h, 0.01 µM ([1]; human PBMCs, PBMC + LPS(5 ug/ml), test article 0.01 uM, single replicates): 83%; IL-2 conc/live cell [2, 11]: 0.0 pg/10^5; MFI, Bead name: IL-2 [2, 11]: 6.0 (2×) and 4.0; IL-2 conc/live cell [2, 12]: 0.0 pg/10^5; MFI, Bead name: IL-2 [2, 12]: 5.3; IL-2 conc/live cell [2, 13]: 0.0 pg/10^5; MFI, Bead name: IL-2 [2, 13]: 6.0 and 5.0 (2×); IL-2 conc/live cell [2, 14]: 0.0 pg/10^5; MFI, Bead name: IL-2 [2, 14]: 4.0; IL-2 conc/live cell [2, 15]: 0.0 pg/10^5; MFI, Bead name: IL-2 [2, 15]: 4.0 and 2.0 and 6.0
